# Test results taken from ChEMBL document CHEMBL4340535, “Antitumor effect of chiral organotelluranes elicited in a murine melanoma model” (Bioorg Med Chem, 2019).
# Activity calls are given as the source filed them. The rule behind the calls is not given here.
# Tests used:
# B16F10Nex2 [1] = assay: Induction of morphological changes in mouse B16F10Nex2 cells assessed as retraction of cell protrusions at 10 uM incubated for 24 hrs by tubulin-Cy2 and TOPRO-3 staining based confocal microscopic method; format: functional
# B16F10Nex2 [2] = assay: Anti-invasive activity in mouse B16F10Nex2 cells assessed as reduction in invasive potential at 20 uM incubated for 24 hrs by Giemsa staining based matrigel assay relative to control; format: functional; conditions: B16F10Nex2, 24 h
# B16F10Nex2 [3] = assay: Induction of morphological changes in mouse B16F10Nex2 cells at 10 uM incubated for 24 hrs by tubulin-Cy2 and TOPRO-3 staining based confocal microscopic method; format: functional, cell-based
# HUVEC [4] = assay: Anti-angiogenic activity in human HUVEC cells assessed as inhibition in pro-angiogenic structures formation in presence of fetal calf serum at 0.5 uM incubated for 18 hrs by inverted light microscopy based matrigel assay; format: functional
# HT-144 [5] = assay: Induction of morphological changes in human HT144 cells assessed as membrane blebbing at 10 uM incubated for 24 hrs by tubulin-Cy2 and TOPRO-3 staining based confocal microscopic method; format: functional, cell-based
# B16F10Nex2 [6] = assay: Inhibition of cell adhesion of mouse B16F10Nex2 cells assessed as reduction in cell adhesion to laminin at 2 uM incubated for 3 hrs by toluidine blue staining based assay; format: functional
# HT-144 [7] = assay: Cytotoxicity against human HT144 cells assessed as reduction in cell viability incubated for 16 hrs by MTT assay; format: functional, cell-based
# B16F10Nex2 [8] = assay: Antitumor activity against mouse B16F10Nex2 cells transplanted in C57BL/6 mouse assessed as reduction in lung metastases at 20 uM, ip administered for 5 non-consecutive days and measured 21 days post transplantation relative to control; format: functional; design: scale not given: the % may be the effect or the level left
# SK-MEL-25 = assay: Cytotoxicity against human SK-MEL-25 cells assessed as reduction in cell viability incubated for 16 hrs by MTT assay; format: functional, cell-based; conditions: for IC50: SK-MEL-25, 16 h
# B16F10Nex2 [9] = assay: Antimigratory activity against mouse B16F10Nex2 cells assessed as reduction in cell migration towards wound area at 20 uM measured every hour for 24 hrs by scratch wound-healing assay relative to control; format: functional; conditions: B16F10Nex2, 24 h
# HT-144 [10] = assay: Induction of morphological changes in human HT144 cells assessed as retraction of cell protrusions at 10 uM incubated for 24 hrs by tubulin-Cy2 and TOPRO-3 staining based confocal microscopic method; format: functional
# B16F10Nex2 [11] = assay: Induction of morphological changes in mouse B16F10Nex2 cells assessed as membrane blebbing at 10 uM incubated for 24 hrs by tubulin-Cy2 and TOPRO-3 staining based confocal microscopic method; format: functional, cell-based
# HT-144 [12] = assay: (§1) Induction of morphological changes in human HT144 cells assessed as cell rounding with remaining cortical actin in close association with the microtubule network at 30 uM incubated for 24 hrs by phalloidin-TRITC, tubulin-Cy2 and TOPRO-3 staining based confocal microscopic method; format: functional
# B16F10Nex2 [13] = assay: Induction of morphological changes in mouse B16F10Nex2 cells assessed as cell rounding at 10 uM incubated for 24 hrs by tubulin-Cy2 and TOPRO-3 staining based confocal microscopic method; format: functional
# B16F10Nex2 [14] = assay: Inhibition of cell adhesion of mouse B16F10Nex2 cells assessed as reduction in cell adhesion to type 1 collagen at 2 uM incubated for 3 hrs by toluidine blue staining based assay; format: functional
# SK-MEL-28 = assay: Cytotoxicity against human SK-MEL-28 cells assessed as reduction in cell viability incubated for 16 hrs by MTT assay; format: functional, cell-based; conditions: for IC50: SK-MEL-28, 16 h
# HT-144 [15] = assay: as §1, with “reduction in stress fibers formation by measuring” for “cell rounding with”; format: functional, cell-based
# NIH3T3 = assay: Cytotoxicity against mouse 3T3 cells assessed as reduction in cell viability incubated for 16 hrs by MTT assay; format: cell-based; conditions: for IC50: Mus musculus, NIH3T3, 16 h; for Activity: mouse, nih3t3, 16 h
# HT-144 [16] = assay: Induction of morphological changes in human HT144 cells assessed as cell rounding at 10 uM incubated for 24 hrs by tubulin-Cy2 and TOPRO-3 staining based confocal microscopic method; format: functional
# [17] = target: Cathepsin B (Homo sapiens) (UniProt P07858); assay: Inhibition of human recombinant cathepsin B assessed as second-order inhibition rate constant using Z-RR-MCA as substrate incubated for 10 mins by spectrofluorimetric method
# HT-144 [18] = assay: Induction of morphological changes in human HT144 cells assessed as depolymerisation of F-actin at 10 uM incubated for 24 hrs by tubulin-Cy2 and TOPRO-3 staining based confocal microscopic method; format: functional, cell-based
# B16F10Nex2 [19] = assay: Antitumor activity against mouse B16F10Nex2 cells transplanted in C57BL/6 mouse assessed as reduction in lungs superficial nodules at 20 uM, ip administered every other day for 12 days and measured 21 days post transplantation relative to control; format: functional
# HUVEC [20] = assay: Anti-invasive activity in human HUVEC cells assessed as reduction in invasive potential at 20 uM incubated for 24 hrs by Giemsa staining based matrigel assay; format: functional, cell-based
# HT-144 [21] = assay: Induction of morphological changes in human HT144 cells assessed as reduction in stress fibers formation by measuring cell rounding at 30 uM incubated for 24 hrs by phalloidin-TRITC, tubulin-Cy2 and TOPRO-3 staining based confocal microscopic method; format: functional
# [22] = target: Cathepsin S (Homo sapiens) (UniProt P25774); assay: Inhibition of human recombinant cathepsin S assessed as second-order inhibition rate constant using Z-FR-MCA as substrate incubated for 10 mins by spectrofluorimetric method
# Chain of Cathepsin S (Homo sapiens) (P25774 115-331 limits assumed): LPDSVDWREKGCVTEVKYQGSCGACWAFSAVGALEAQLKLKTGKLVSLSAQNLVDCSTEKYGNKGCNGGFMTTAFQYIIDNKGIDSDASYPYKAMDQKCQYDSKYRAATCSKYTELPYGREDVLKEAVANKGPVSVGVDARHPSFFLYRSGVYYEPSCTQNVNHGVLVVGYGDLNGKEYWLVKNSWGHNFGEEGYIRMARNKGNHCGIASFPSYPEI
# B16F10Nex2 [23] = assay: Inhibition of cell adhesion of mouse B16F10Nex2 cells assessed as reduction in cell adhesion to fibronectin at 2 uM incubated for 3 hrs by toluidine blue staining based assay; format: functional
# B16F10Nex2 [24] = assay: Induction of morphological changes in mouse B16F10Nex2 cells assessed as depolymerisation of F-actin at 10 uM incubated for 24 hrs by tubulin-Cy2 and TOPRO-3 staining based confocal microscopic method; format: functional, cell-based
# MeWo = assay: Cytotoxicity against human MeWo cells assessed as reduction in cell viability incubated for 16 hrs by MTT assay; format: functional, cell-based
# B16F10Nex2 [25] = assay: Cytotoxicity against mouse B16F10Nex2 cells assessed as reduction in cell viability incubated for 16 hrs by MTT assay; format: functional, cell-based; conditions: for IC50: B16F10Nex2, 16 h
# HUVEC [26] = assay: Antimigratory activity against human HUVEC cells assessed as reduction in cell migration towards wound area at 20 uM measured every hour for 24 hrs by scratch wound-healing assay relative to control; format: functional
# HUVEC [27] = assay: Cytotoxicity against human HUVEC cells assessed as reduction in cell viability incubated for 16 hrs by MTT assay; format: cell-based; conditions: for IC50: Homo sapiens, HUVEC; for Activity: human, huvec
# B16F10Nex2 [28] = assay: Inhibition of cell adhesion of mouse B16F10Nex2 cells assessed as reduction in cell adhesion to type 4 collagen at 2 uM incubated for 3 hrs by toluidine blue staining based assay; format: functional
# HT-144 [29] = assay: Induction of morphological changes in human HT144 cells at 10 uM incubated for 24 hrs by tubulin-Cy2 and TOPRO-3 staining based confocal microscopic method; format: functional, cell-based
# HeLa = assay: Cytotoxicity against human HeLa cells assessed as reduction in cell viability incubated for 16 hrs by MTT assay; format: functional, cell-based
# A2058 = assay: Cytotoxicity against human A2058 cells assessed as reduction in cell viability incubated for 16 hrs by MTT assay; format: functional, cell-based; conditions: for IC50: A2058, 16 h
# [30] = target: Procathepsin L (Homo sapiens) (UniProt P07711); assay: Inhibition of human recombinant cathepsin L expressed in Pichia pastoris assessed as second-order inhibition rate constant using Z-FR-MCA as substrate incubated for 10 mins by spectrofluorimetric method
# Chain of Procathepsin L (Homo sapiens) (P07711 114-333 limits assumed): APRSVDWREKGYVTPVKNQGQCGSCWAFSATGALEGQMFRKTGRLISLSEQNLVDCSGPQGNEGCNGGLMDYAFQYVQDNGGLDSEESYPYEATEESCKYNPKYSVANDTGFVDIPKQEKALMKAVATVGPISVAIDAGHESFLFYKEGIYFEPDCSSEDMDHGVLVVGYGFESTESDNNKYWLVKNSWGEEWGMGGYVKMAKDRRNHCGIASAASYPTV
# HUVEC [31] = assay: Anti-angiogenic activity in human HUVEC cells assessed as inhibition in pro-angiogenic structures formation in presence of fetal calf serum at 5 uM incubated for 18 hrs by inverted light microscopy based matrigel assay; format: functional
# HUVEC [32] = assay: Anti-angiogenic activity in human HUVEC cells assessed as inhibition in pro-angiogenic structures formation in presence of fetal calf serum at 0.062 uM incubated for 18 hrs by inverted light microscopy based matrigel assay; format: functional
smiles,measurement,setting,value
CCCC[Te](Cl)(Cl)c1ccccc1[C@@H](C)OC,Activity,B16F10Nex2 [1],Active
same,inhibition at 20 µM,B16F10Nex2 [2],80%
same,Activity,B16F10Nex2 [3],Active
same,inhibition at 0.5 µM,HUVEC [4],45%
same,Activity,HT-144 [5],Active
same,inhibition,B16F10Nex2 [6],Active
same,Activity,HT-144 [7],Dose-dependent effect
same,Activity,B16F10Nex2 [8],58%
same,Activity,SK-MEL-25,Dose-dependent effect
same,IC50,SK-MEL-25,18 mM
same,inhibition at 20 µM,B16F10Nex2 [9],80%
same,Activity,HT-144 [10],Active
same,Activity,B16F10Nex2 [11],Active
same,Activity,HT-144 [12],Active
same,Activity,B16F10Nex2 [13],Active
same,inhibition,B16F10Nex2 [14],Active
same,Activity,SK-MEL-28,Dose-dependent effect
same,IC50,SK-MEL-28,6.2 mM
same,Activity,HT-144 [15],Active
same,IC50,NIH3T3,11.5 mM
same,Activity,NIH3T3,Dose-dependent effect
same,Activity,HT-144 [16],Active
same,K,[17],3700 M⁻¹ s⁻¹
same,Activity,HT-144 [18],Active
same,fold change (FC),B16F10Nex2 [19],2
same,Activity,HUVEC [20],Active
same,Activity,HT-144 [21],Active
same,K,[22],39000 M⁻¹ s⁻¹
same,inhibition,B16F10Nex2 [23],Active
same,Activity,B16F10Nex2 [24],Active
same,Activity,MeWo,Dose-dependent effect
same,IC50,MeWo,9.5 mM
same,Activity,B16F10Nex2 [25],Dose-dependent effect
same,IC50,B16F10Nex2 [25],2.3 mM
same,inhibition at 20 µM,HUVEC [26],33%
same,IC50,HUVEC [27],20.3 mM
same,Activity,HUVEC [27],Dose-dependent effect
same,inhibition,B16F10Nex2 [28],Active
same,Activity,HT-144 [29],Active
same,Activity,HeLa,Dose-dependent effect
same,IC50,HeLa,2.3 mM
same,Activity,A2058,Dose-dependent effect
same,IC50,A2058,5.5 mM
same,K,[30],5500 M⁻¹ s⁻¹
CC(C)C[C@H](NC(=O)[C@H]1O[C@@H]1C(=O)O)C(=O)NCCCCN=C(N)N [E-64],inhibition at 5 µM,HUVEC [31],80%
CCCC[Te](Cl)(Cl)c1ccccc1[C@H](C)OC,Activity,B16F10Nex2 [1],Active
same,inhibition at 20 µM,B16F10Nex2 [2],80%
same,Activity,B16F10Nex2 [3],Active
same,Activity,HT-144 [5],Active
same,inhibition,B16F10Nex2 [6],Active
same,Activity,HT-144 [7],Dose-dependent effect
same,Activity,B16F10Nex2 [8],85%
same,Activity,SK-MEL-25,Dose-dependent effect
same,IC50,SK-MEL-25,2.5 mM
same,inhibition at 20 µM,B16F10Nex2 [9],80%
same,Activity,HT-144 [10],Active
same,Activity,B16F10Nex2 [11],Active
same,Activity,HT-144 [12],Active
same,Activity,B16F10Nex2 [13],Active
same,inhibition,B16F10Nex2 [14],Active
same,Activity,SK-MEL-28,Dose-dependent effect
same,IC50,SK-MEL-28,3.1 mM
same,Activity,HT-144 [15],Active
same,IC50,NIH3T3,3.1 mM
same,Activity,NIH3T3,Dose-dependent effect
same,Activity,HT-144 [16],Active
same,K,[17],7400 M⁻¹ s⁻¹
same,Activity,HT-144 [18],Active
same,fold change (FC),B16F10Nex2 [19],7
same,Activity,HUVEC [20],Active
same,Activity,HT-144 [21],Active
same,K,[22],600000 M⁻¹ s⁻¹
same,inhibition,B16F10Nex2 [23],Active
same,Activity,B16F10Nex2 [24],Active
same,Activity,MeWo,Dose-dependent effect
same,IC50,MeWo,3.2 mM
same,Activity,B16F10Nex2 [25],Dose-dependent effect
same,IC50,B16F10Nex2 [25],0.9 mM
same,inhibition at 0.062 µM,HUVEC [32],55%
same,IC50,HUVEC [27],2.8 mM
same,Activity,HUVEC [27],Dose-dependent effect
same,inhibition,B16F10Nex2 [28],Active
same,Activity,HT-144 [29],Active
same,Activity,HeLa,Dose-dependent effect
same,IC50,HeLa,0.8 mM
same,Activity,A2058,Dose-dependent effect
same,IC50,A2058,1.5 mM
same,K,[30],8700 M⁻¹ s⁻¹
